Test results taken from the NIST ThermoML archive (doi:10.1016/j.fluid.2014.07.032).
Numbers after ± are expanded uncertainties.

What was measured:
[1] = Liquid; for mass density: 298.15 K, 101.33 kPa, Vibrating tube method; for Normal boiling temperature: Ebulliometric method (Recirculating still)
[2] = refractive index (Na D-line) (dimensionless); settings: 298.15 K; 101.33 kPa; Liquid; Standard Abbe refractometry

SMILES | mass density [1] [kg/m3] | Normal boiling temperature [1] [°C] | refractive index [2]
CCCCC(CC)COC(C)=O (stereo not drawn) [2-ethylhexyl acetate] | 872.25 ± 0.24 | 199.10 ± 0.2 | 1.4205 ± 0.0007
CC(=O)O [acetic acid] | 1049.42 ± 0.08 | 118.1 ± 1 | 1.3713 ± 0.0007
O [water] |  | 100.1 ± 1 | 1.3324 ± 0.0007
